Measurements as given in PubChem BioAssay AID540252 (Sanford-Burnham Center for Chemical Genomics, 2011).
The source made the active and inactive calls. No rule for the calls is given here.

These molecules were tested against glucose-6-phosphate dehydrogenase-6-phosphogluconolactonase (Plasmodium falciparum 3D7) (assay: inhibition of P. falciparum G6PD activity – biochemical, end-point NADPH detection, orthogonal assay, dose response (AID 540252)). Conditions: purified PfG6PD enzyme, NADPH direct detection.

Compound | IC50
N#Cc1ccc2c(=O)n(-c3ccccc3)sc2c1 | > 80 µM (inactive)
O=c1c2ccccc2sn1-c1cccc(Cl)c1 | 13.7 µM
Cc1ccc(-c2nn(C)c(=O)c3ccccc23)cc1CNC(=O)/C=C/c1ccccc1 | > 80 µM (inactive)
Nc1c(C(=O)Nc2ccc(F)cc2)sc(=S)n1-c1ccccc1F | > 80 µM (inactive)
CC(=O)c1cccc(NC(=O)c2cnn(-c3ccccc3)c2C)c1 | > 80 µM (inactive)
CCOc1ccc(S(=O)(=O)Nc2cc(SCC(=O)O)c(O)c3ccccc23)cc1 | > 80 µM (inactive)
Cc1ccc(C(=O)NCC(=O)NCC(=O)OCC(=O)c2ccc([N+](=O)[O-])cc2)cc1 | 48.4 µM
O=C(Nc1nnc(S(=O)(=O)N2CCCCC2)s1)c1ccc(Cl)cc1 | > 80 µM (inactive)
O=[N+]([O-])c1ccc(-[n+]2ccc3ccccc3c2)c([N+](=O)[O-])c1 | > 80 µM (inactive)
CC1COCC(C)N1C1=C(Cl)C(=O)c2ccccc2C1=O (stereo unspecified) | > 80 µM (inactive)
Cc1ccsc1/C=N\NC(=O)CC(=O)NCc1ccccc1 | > 80 µM (inactive)
Cc1nc2ccccn2c1-c1ccnn1S(=O)(=O)c1ccc(F)cc1 | > 80 µM (inactive)
Nc1ccc2c3c(cccc13)-c1ccccc1-2 | > 80 µM (inactive)
N#CC(C#N)=C1C=CC=CN1/C(=C\c1ccccc1Cl)C(=O)c1ccccc1 | > 80 µM (inactive)
Cc1no[n+]([O-])c1COc1cccc(/C=N/Nc2nncn2N)c1 | > 80 µM (inactive)
Cc1ccc(-n2c(N)c(C(=O)N3CCN(C)CC3)sc2=S)cc1 | 55.2 µM
O=C(Nc1ccccc1C(=O)N/N=C/c1ccco1)c1ccccc1Cl | > 80 µM (inactive)
C[C@H](NC(N)=O)C(=O)Nc1ccc(N2CCOCC2)c(S(=O)(=O)Nc2ccc(Cl)cc2)c1 | > 80 µM (inactive)
Cc1cc(=O)[nH]c(N/N=C/c2c(C)nn(-c3ccccc3)c2Cl)n1 | 19.9 µM
CC(C)c1nnc(NC(=O)c2sc3ccccc3c2Cl)s1 | > 80 µM (inactive)
O=S(=O)(Nc1cccc2cccnc12)c1ccccc1 | > 80 µM (inactive)
CCC1(C)CC(C(N)=S)CCO1 (stereo unspecified) | > 80 µM (inactive)
C/C(Cn1nnc([N+](=O)[O-])n1)=N\NC(=O)c1ccccc1O | > 80 µM (inactive)
COc1cccc(C(=O)Nc2nnc(S(=O)(=O)N(C)Cc3ccccc3)s2)c1 | > 80 µM (inactive)
COc1cc(NCc2ccccc2)c2ncn(Cc3ccccc3)c2c1 | > 80 µM (inactive)
CC1CN(c2ccccc2)NC1=O (stereo unspecified) | > 80 µM (inactive)

Compound | IC50
COc1cc(C(=O)O/N=C2\C=CC(=O)C=C2C)cc(OC)c1OC | > 80 µM (inactive)
COc1cc(N)c2ncccc2c1Cl | > 80 µM (inactive)
CCC(C)c1ccccc1OCCn1ccnc1 (stereo unspecified) | > 80 µM (inactive)
N#Cc1ccc(Oc2cccc3cccnc23)c([N+](=O)[O-])c1 | > 80 µM (inactive)
CCOc1cc(NCc2ccccc2)c2ncn(C(C)C)c2c1 | > 80 µM (inactive)
Cc1ccc(-n2sc3ccccc3c2=O)cc1 | 24.8 µM
O=C(CNC(=O)c1cccs1)NCC(=O)OCC(=O)c1ccc([N+](=O)[O-])cc1 | 67.9 µM
O=[N+]([O-])c1ccc(Sc2cccc3cccnc23)c2cccnc12 | > 80 µM (inactive)
Cc1ccc(-c2csc(NC(=O)c3ccc(Br)cc3)c2C(=O)O)cc1 | > 80 µM (inactive)
CCS(=O)(=O)N1CCN(c2ccc([N+](=O)[O-])c(NC(C)c3ccccc3)c2)CC1 (stereo unspecified) | > 80 µM (inactive)
CCOc1ccccc1NC(=O)CCCc1nc2ccccc2c(=O)[nH]1 | > 80 µM (inactive)
Cc1ccc(C(=O)Nc2nnc(S(=O)(=O)N3CCC(C)CC3)s2)cc1 | > 80 µM (inactive)
O=C(Nc1ccc(N2CCCC2)cc1)c1cccc(-c2cc3ccccc3oc2=O)c1 | > 80 µM (inactive)
Cc1ccc(NC(=O)c2cc(N3C(=O)C=CC3=O)ccc2Cl)cc1C | 49.2 µM
O=C(COc1cccc2ccccc12)Nc1ccc(Cl)cc1C(=O)O | > 80 µM (inactive)
Cc1ccc(Cl)cc1NC1=C/C(=N\S(=O)(=O)c2cccs2)c2ccccc2C1=O | > 80 µM (inactive)
CCc1cc(-c2n[nH]c(C)c2-c2nc3ccccc3n2C)c(O)cc1O | > 80 µM (inactive)
CCOc1cc(CNc2ccc(N3CCCC3)cc2)cc(Cl)c1OC | > 80 µM (inactive)
Cc1[nH]c2ccccc2c1/C=N/NC(=O)c1cccc(S(=O)(=O)Nc2ccccc2Cl)c1 | > 80 µM (inactive)
NCCNc1ccc(C(=O)N2c3ccccc3Sc3ccccc32)cc1[N+](=O)[O-] | 13.2 µM
O=C1C=CC(=O)N1c1ccc(N2CCCCC2)cc1 | 38 µM
CC(=O)Nc1cc([N+](=O)[O-])ccc1OCc1ccccc1 | > 80 µM (inactive)
O=C1NC(=O)N(c2ccccc2)C(=O)/C1=C/c1ccc([N+](=O)[O-])s1 | > 80 µM (inactive)
O=c1c2cc(F)ccc2sn1-c1ccc(F)cc1 | 25.5 µM
Cc1ccc(-c2c(C(=O)N/N=C/c3ccc(C)o3)nnn2-c2nonc2N)cc1 | > 80 µM (inactive)
O=S(=O)(Nc1cc(Sc2ncn[nH]2)c(O)c2ccccc12)c1ccccc1 | > 80 µM (inactive)

Compound | IC50
CCCCCCCCSC1=CC(=O)C(OC)=C(OC)C1=O | > 80 µM (inactive)
Cc1ccc(S(=O)(=O)NNc2ccccc2)cc1 | 37.9 µM
COc1cccc(CNc2ccc3[nH]c(=O)[nH]c3c2)c1OCc1ccccc1Cl | > 80 µM (inactive)
O=[N+]([O-])c1ccc2c(c1)-c1ccccc1C2O (stereo unspecified) | 23.8 µM
COc1ccc(C(=O)ON=C2C=C(C)C(=O)C(C)=C2)cc1 | > 80 µM (inactive)
Cc1cccc(OCC(=O)NCC(=O)N/N=C/c2ccccc2)c1 | > 80 µM (inactive)
COC(=O)[C@H](C)NC(=O)c1cc2c(cn1)[nH]c1ccccc12 | > 80 µM (inactive)
O=C1C=CC(=O)N1c1ccc2c(c1)C(NC(=O)C(F)(F)F)c1ccccc1-2 (stereo unspecified) | 20 µM
CCSc1nc2cc(S(=O)(=O)N3CCOCC3)ccc2o1 | > 80 µM (inactive)
O=S(=O)(NCc1csc(-c2ccccc2)n1)c1ccc(Cl)s1 | > 80 µM (inactive)
CN1CCc2cccc3c2[C@H]1Cc1ccc(O)c(O)c1-3 | > 80 µM (inactive)
Cc1ccccc1-n1sc2cc(F)ccc2c1=O | 8.11 µM
CC1=CC(=NOC(=O)/C=C/c2ccccc2)C=C(C)C1=O | > 80 µM (inactive)
COC1=CC(=O)C=C(OC)C1(O)CC(C)=O | > 80 µM (inactive)
Cc1ccnc(-n2sc3ccccc3c2=O)n1 | > 80 µM (inactive)
CN1CCN(C(=S)c2ccc([N+](=O)[O-])cc2)CC1 | 65.5 µM
Cc1ccccc1OCC(=O)NCC(=O)OCC(=O)c1ccc([N+](=O)[O-])cc1 | 50.1 µM
Cc1cc(C(=O)O)ccc1-n1c(C)cc(C=C2C(=O)c3ccccc3C2=O)c1C | > 80 µM (inactive)
Cn1c(=O)[nH]c(=O)c2c1nc(SCCN1CCCCC1)n2CCCc1ccccc1 | > 80 µM (inactive)
CC(C)(C)NC(=O)COc1ccc(CNc2ccc3[nH]c(=O)[nH]c3c2)cc1 | > 80 µM (inactive)
Cn1c(=O)[nH]c(=O)c2c1nc([N+](=O)[O-])n2Cc1ccccc1 | > 80 µM (inactive)
COc1ccc(CNC(=O)Cc2cn(C)c3ccccc23)c(OC)c1 | > 80 µM (inactive)
CN1CC[C@@]2(C)c3cc(O)ccc3N(C)[C@@H]12 | > 80 µM (inactive)
CCC(c1ccc(O)c(O)c1)C(CC)c1ccc(O)c(O)c1 (stereo unspecified) | > 80 µM (inactive)
